Tests used:
[1] = molecular target: T1, Polycomb (Drosophila melanogaster, UniProt P26017); conditions: from reference 2; read-out: Experimental dissociation constant; cited from earlier work
T1 sequence (P26017 1-390): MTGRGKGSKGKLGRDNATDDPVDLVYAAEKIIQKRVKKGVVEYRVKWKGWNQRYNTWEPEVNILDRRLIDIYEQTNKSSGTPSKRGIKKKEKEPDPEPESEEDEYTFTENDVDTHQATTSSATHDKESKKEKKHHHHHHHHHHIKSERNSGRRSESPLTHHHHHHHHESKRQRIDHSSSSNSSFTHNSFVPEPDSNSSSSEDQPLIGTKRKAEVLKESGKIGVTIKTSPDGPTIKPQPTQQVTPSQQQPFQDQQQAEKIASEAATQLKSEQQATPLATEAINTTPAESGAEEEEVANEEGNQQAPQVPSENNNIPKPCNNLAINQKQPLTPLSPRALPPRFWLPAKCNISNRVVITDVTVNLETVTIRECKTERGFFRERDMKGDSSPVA

[2] = molecular target: T2, Polycomb protein chromodomain (Drosophila melanogaster, UniProt P26017); experiment: Peptide microarray binding of GST-tagged Polycomb chromodomain; set-up: dose or concentration left out as unconfirmed; conditions: Binder if at least two of three spots pass p-value cutoff 0.001 from background
T2 construct: The chromodomain (a.a. 1-90) of Polycomb protein was expressed as GST-tagged fusion protein; made in house
T2 sequence (P26017 1-90): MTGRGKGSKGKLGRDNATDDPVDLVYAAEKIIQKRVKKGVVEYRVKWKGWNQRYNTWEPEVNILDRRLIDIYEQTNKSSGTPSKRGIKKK
From the text: There are a total of 46 histone peptide sequences (9 a.a. long) with a single lysine-trimethylation site which are conserved between the human and fruit fly H2, H3 and H4 proteins (Table II). These were screened for Polycomb protein chromodomain binding by peptide microarray. Each peptide sequence was screened as triplets, and the fluorescence intensity was quantified with background subtraction individually for each spot from the microarray images by ImageJ^9 and the whole data set was fit to a mixed Gaussian distribution model (FIG. 8, Table III).
Twelve out of the 46 sequences were identified as positive binders under these criteria. Ten of these microarray-identified binders also yielded high mutation matrix score in an independent prediction (Table IV).
The chromodomain (a.a. 1-90) of Polycomb protein was expressed as GST-tagged fusion protein and purified as described in [65]. The purity of the protein was examined by SDS-PAGE electrophoresis followed by both Coomassie staining and western blot using an Anti-GST-HRP conjugate (Santa Cruz Biotechnology). The concentration of purified protein was determined by BCA assay (Amresco). A total of 46 trimethylated histone peptides were synthesized by Sigma Aldrich (desalted, mass spectrometry checked). The peptides were then printed as triplets onto glass slides (ArrayIt), together with a Cy3 marker and an anti-GST (mouse monoclonal) antibody (Thermo) as references.
The peptide microarray was rinsed with TBST buffer (25 mM Tris, 125 mM NaCl, 0.05% Tween-20, pH 8) followed by blocking with 5% non-fat milk in TBST (room temperature 1 hour or 4° C. overnight). The slide was then incubated at 4° C. with Polycomb-GST fusion protein at a final concentration of […] in 5% non-fat milk/TBST for 6 hours. After washing three times for 10 minutes each with TBST, the slide was incubated with an anti-GST mouse monoclonal IgG antibody (Thermo) at a final concentration of 1 μg/mL in 5% non-fat milk/TBST and shaken gently for 1 hour at room temperature. A secondary anti-mouse IgG Dylight-488 conjugated antibody (Thermo) was added to a final concentration of 0.1 μg/mL after three more cycles of 10 minutes washing with TBST. The slide was shaken for 1 hr at room temperature and washed three times with TBST.
The dried microarray slides were scanned using a Hamamatsu NanoZoomer 2.0HT Slide Scanning System (Neuroscience Light Microscopy Facility, UCSD). Data quantification were processed using the microarray processing software ImageJ^9, where the fluorescent intensity of a microarray spot was defined as its own intensity minus the background intensity around it on the scanned image.

[3] = molecular target: Abl1 SH3 domain (Homo sapiens, UniProt P00519); experiment: Peptide microarray binding of GST-Abl SH3 fusion protein (Cy3 fluorescence); conditions: peptides printed at 1 mg/ml in triplicates, GST-Abl SH3 5 μM
Method: The GST-tagged Abl SH3 domain fusion protein was purified as previously described (12). Protein concentration was determined using the Bradford Assay (Bio-Rad). The purity of the fusion protein was checked by electrophoresis on SDS-PAGE gel and coomassie blue staining. The fusion protein was also subjected to electrophoresis on SDS-PAGE gel, followed by Western blot using a horseradish peroxidase-conjugated anti-GST antibody (Santa Cruz Biotechnology) and the SuperSignal West chemiluminescent substrate (Pierce).
All peptides were synthesized by Sigma-Aldrich. The peptides were printed onto glass slides in triplicates by ArrayIt Corporation. […]
The peptide microarray was processed by the InnoScan 710 laser scanner (ArrayIt Corporation). Cy-3 fluorescence was detected using the 532 nm laser at 3 um resolution. The resulted microarray image was analyzed by the microarray image process software Mapix2.8.2 (ArrayIt Corporation). The fluorescent intensity of a microarray spot was defined as its own intensity minus the background intensity around it, as determined from the scanned image.
To print peptide microarrays, method of immobilizing the peptides on the glass surface, as well as the amount of peptide printed, needed to decide. […] Binding of GST-Abl SH3 to peptides generated a Cy3 fluorescent signal that was recorded on a laser scanner. […]

Abl1 SH3 domain, sequence (P00519 61-121 limits assumed): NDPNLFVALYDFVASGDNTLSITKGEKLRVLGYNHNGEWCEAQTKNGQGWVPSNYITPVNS

Array Verification [2]	Sequence	Kd [1]	Average fluorescence intensity (high printing concentration) [3]
Binder	LATKAARKS [template histone H3 peptide L20 to S28 with trimethylated Lys27, reference compound]	5 ± 1 µM	
	PPDPPPPPLP [10-residue peptide of SHIP2_HUMAN 1050-1059]		58833

From US8728980B2, “Peptide microarray and method of use” (The Regents of the University of California, priority 2011, dated 2014)
